How the values were obtained:
Assay type in all cases: cell-based
[1] = test system: HUMAN RSV-A (“LONG” STRAIN); test: RSV-A assay (CPE, ATPlite) in Hep-2 cells; settings: human respiratory syncytial virus, 120 h, MOI 0.1, 5-day incubation
In short: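 Hep-2 cells (8,000/well) given 2-fold serial compound dilutions in duplicate, then infected with RSV-A Long strain at MOI 0.1. After 5 days, virus-induced cytopathic effect quantified as cellular ATP by ATPlite luminescence, against virus-only and uninfected controls; EC50 reported in ranges.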

[2] = test system: hMPV A2 TN/94-49; test: HMPV antiviral assay Method 2 (LLC-MK2 cells with CP-100-356, ATP-Lite); settings: hMPV A2 TN/94-49, LLC-MK2 cells, 4 μM CP-100-356, Method 2
In short: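 LLC-MK2 cells infected in suspension with hMPV A2 TN/94-49 at MOI 0.16, in serum-free OptiMEM with final 2 μg/mL TPCK-trypsin and 2 μM CP-100-356 (P-gp inhibitor). Compounds tested in duplicate, top 200 nM, 2.5-fold, 10 points; 7 days at 37 °C. ATP-Lite cell health normalised to controls; EC50 by four-parameter fit.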

[3] = test system: hMPV A2 TN/94-49; test: HMPV antiviral assay Method 1 (LLC-MK2 cells, ATP-Lite); settings: hMPV A2 TN/94-49, LLC-MK2 cells
In short: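 LLC-MK2 cells infected in suspension with hMPV A2 TN/94-49 at MOI 0.005, 5,000 cells/well, in serum-free OptiMEM with 2 μg/mL TPCK-trypsin (final) and CaCl2; compounds in duplicate, 10 points, 2 μM top, 2.5-fold dilutions. After 7 days at 37 °C, cell health by ATP-Lite luminescence; EC50 by four-parameter fit.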

| Compound | EC50 [1] | EC50 [2] | EC50 [3] |
| --- | --- | --- | --- |
| COc1cc(C(=O)NC[C@@](O)(c2ccc(F)cc2)c2cc3c(c(-c4ccc(F)c(Cl)c4Cl)n2)OC[C@]3(C)C(N)=O)cc2cn(C3CC3)nc12 [Example 41] | < 200 nM | < 200 nM | < 500 nM |
| COc1cc(C(=O)NC[C@@](O)(c2ccccc2)c2cc3c(c(-c4ccc(F)c(Cl)c4Cl)n2)OC[C@]3(C)C(N)=O)cc2cc(C3CC3)nnc12 [Example 290] | < 200 nM | < 200 nM | < 500 nM |
| C[C@]1(C(N)=O)COc2c1cc([C@@](O)(CNC(=O)c1cc(OC3CC3)c3nn(C(F)F)cc3c1)c1ccc(F)cc1)nc2-c1ccc2c(c1Cl)OC(F)(F)O2 [Example 265] | < 200 nM | < 200 nM | < 500 nM |
| COc1cc(C(=O)NC[C@@](O)(c2cccc(F)c2)c2cc3c(c(-c4ccc5c(c4Cl)OC(F)(F)O5)n2)OC[C@]3(C)C(N)=O)cc2cn(C3(F)CC3)nc12 [Example 275] | < 200 nM | < 200 nM | < 500 nM |
| COc1cc(C(=O)NC[C@@](O)(c2ccccc2)c2cc3c(c(-c4cc(Cl)c(F)cc4F)n2)OC[C@]3(C)C(N)=O)cc2cc(C(F)F)nnc12 [Example 186] | < 200 nM | < 200 nM | > 500 nM |
| COc1cc(C(=O)NC[C@](O)(c2cc3c(c(-c4ccc5c(c4)OC(F)(F)O5)n2)OC[C@]3(C)C(N)=O)C2CC2)cc2cc(C)c(F)nc12 [Example 22] | < 200 nM | < 200 nM | < 500 nM |
| [2H]C([2H])([2H])c1nc2ccc(C(=O)NC[C@@](O)(c3cccc(F)c3)c3cc4c(c(-c5ccc6c(c5Cl)OC(F)(F)O6)n3)OC[C@]4(C)C(N)=O)cc2o1 [Example 282] | < 200 nM | < 200 nM | < 500 nM |
| C[C@]1(C(N)=O)COc2c1cc([C@@](O)(CNC(=O)c1cc(OC3CC3)c3nn(C4CC4)cc3c1)C1CC1)nc2-c1ccc(F)c(Cl)c1Cl [Example 23] | < 200 nM | < 200 nM | < 500 nM |
| COc1cc(C(=O)NC[C@@](O)(c2cccc(F)c2)c2cc3c(c(-c4cccc(Cl)c4Cl)n2)OC[C@]3(C)C(N)=O)cc2cn(C3(F)CC3)nc12 [Example 291] | < 200 nM | < 200 nM | < 500 nM |
| COc1cc(C(=O)NC[C@@](O)(c2ccccc2)c2cc3c(c(-c4ccc(F)c(F)c4Cl)n2)OC[C@]3(C)C(N)=O)cc2cn(C(F)F)nc12 [Example 213] | < 200 nM | < 200 nM | < 500 nM |
| C[C@]1(C(N)=O)COc2c1cc([C@@](O)(CNC(=O)c1ccc3nc(C4CC4)oc3c1)c1cccc(F)c1)nc2-c1ccc2c(c1Cl)OC(F)(F)O2 [Example 287] | < 200 nM | < 200 nM | < 500 nM |
| [2H]C([2H])([2H])c1nc2ccc(C(=O)NC[C@@](O)(c3cccc(F)c3)c3cc4c(c(-c5ccc(F)c(Cl)c5Cl)n3)OC[C@]4(C)C(N)=O)cc2o1 [Example 281] | < 200 nM | < 200 nM | < 500 nM |
| [2H]C([2H])([2H])NC(=O)[C@@]1(C)COc2c1cc([C@@](O)(CNC(=O)c1cc(OC)c3nn(C4CC4)cc3c1)c1ccccc1)nc2-c1cc(Cl)c(F)cc1F [Example 140] | < 200 nM | < 200 nM | < 500 nM |
| COc1cc(C(=O)NC[C@@](O)(c2ccccc2)c2cc3c(c(-c4ccc(F)c(Cl)c4Cl)n2)OC[C@]3(C)C(N)=O)cc2oc(C)nc12 [Example 277] | < 200 nM | < 200 nM | < 500 nM |
| COc1cc(C(=O)NC[C@@](O)(c2ccccc2)c2cc3c(c(-c4cc(F)c(F)cc4F)n2)OC[C@]3(C)C(N)=O)cc2cn(C3(F)CC3)nc12 [Example 170] | < 200 nM | < 200 nM | < 500 nM |
| COc1cc(C(=O)NC[C@@](O)(c2cccc(F)c2)c2cc3c(c(-c4cc(C(F)(F)F)c(F)cc4F)n2)OC[C@]3(C)C(N)=O)cc2cn(C3CC3)nc12 [Example 295] | < 200 nM | < 200 nM | < 500 nM |
| C[C@]1(C(N)=O)COc2c1cc([C@@](O)(CNC(=O)c1cc(OCCO)c3nn(C4CC4)cc3c1)C1CC1)nc2-c1ccc(F)c(Cl)c1F [Example 37] | < 200 nM | < 200 nM | > 500 nM |
| COc1cc(C(=O)NC[C@@](O)(c2ccccc2)c2cc3c(c(-c4cc(C(F)F)c(F)cc4F)n2)OC[C@]3(C)C(N)=O)cc2oc(C3CC3)nc12 [Example 299] | < 200 nM | < 200 nM | < 500 nM |
| COc1cc(C(=O)NC[C@@](O)(c2ccccc2)c2cc3c(c(-c4cccc(Cl)c4Cl)n2)OC[C@]3(C)C(N)=O)cc2cn(C3CC3)nc12 [Example 260] | < 200 nM | < 200 nM | < 500 nM |

| Compound | EC50 [1] | EC50 [2] | EC50 [3] |
| --- | --- | --- | --- |
| COc1cc(C(=O)NC[C@@](O)(c2cccc(F)c2)c2cc3c(c(-c4ccc(F)c(Cl)c4Cl)n2)OC[C@]3(C)C(N)=O)cc2oc(C3CC3)nc12 [Example 280] | < 200 nM | < 200 nM | < 500 nM |
| COc1cc(C(=O)NC[C@@](O)(c2ccccc2)c2cc3c(c(-c4cc(Cl)c(F)cc4F)n2)OC[C@]3(C)C(N)=O)cc2cc(Br)cnc12 [Example 185] | < 200 nM | < 200 nM | < 500 nM |
| COc1cc(C(=O)NC[C@@](O)(c2cccc(F)c2)c2cc3c(c(-c4cccc(Cl)c4Cl)n2)OC[C@]3(C)C(N)=O)cc2oc(C3CC3)nc12 [Example 292] | < 200 nM | < 200 nM | < 500 nM |
| COc1cc(C(=O)NC[C@@](O)(c2ccccc2)c2cc3c(c(-c4cc(Cl)ccc4F)n2)OC[C@]3(C)C(N)=O)cc2cc(C3CC3)nn12 [Example 146] | < 200 nM | < 200 nM | < 500 nM |
| COc1cc(C(=O)NC[C@@](O)(c2cccc(F)c2)c2cc3c(c(-c4ccc(F)c(Cl)c4Cl)n2)OC[C@]3(C)C(N)=O)cc2cn(C3CC3)nc12 [Example 268] | < 200 nM | < 200 nM | < 500 nM |
| COc1cc(C(=O)NC[C@@](O)(c2ccccc2)c2cc3c(c(-c4ccc(F)c(Cl)c4Cl)n2)OC[C@]3(C)C(N)=O)cc2oc(C3CC3)nc12 [Example 278] | < 200 nM | < 200 nM | < 500 nM |
| COc1cc(C(=O)NC[C@@](O)(c2cccc(F)c2)c2cc3c(c(-c4ccc(F)c(Cl)c4Cl)n2)OC[C@]3(C)C(N)=O)cc2cn(C(F)F)nc12 [Example 270] | < 200 nM | < 200 nM | < 500 nM |
| COc1cc(C(=O)NC[C@](O)(c2cc3c(c(-c4cc(F)c(F)cc4F)n2)OC[C@]3(C)C(N)=O)C2CC(F)(F)C2)cc2cn(C(F)F)nc12 [Example 33] | < 200 nM | < 200 nM | > 500 nM |
| COc1cc(C(=O)NC[C@@](O)(c2ccc(C(F)(F)F)cc2)c2cc3c(c(-c4cc(Cl)c(F)cc4F)n2)OC[C@]3(C)C(N)=O)cc2cn(C3CC3)nc12 [Example 130] | < 200 nM | > 200 nM | > 500 nM |
| COc1cc(C(=O)NC[C@@](O)(c2ccccc2)c2cc3c(c(-c4cc(Cl)ccc4F)n2)OC[C@]3(C)C(N)=O)cc2cn(C(F)F)nc12 [Example 145] | < 200 nM | < 200 nM | < 500 nM |
| COc1cc(C(=O)NC[C@@](O)(c2ccccc2)c2cc3c(c(-c4cc(Cl)c(F)cc4F)n2)OC[C@]3(C)C(N)=O)cc2cn(C3(F)CC3)nc12 [Example 158] | < 200 nM | < 200 nM | < 500 nM |
| COc1cc(C(=O)NCC(O)(c2cc3c(c(-c4cc(Cl)c(F)cc4F)n2)OC[C@]3(C)C(N)=O)c2cc(C(F)F)cs2)cc2cn(C3CC3)nc12 (stereo partly drawn) [Example 468] | < 200 nM | < 200 nM | > 500 nM |
| COc1cc(C(=O)NC[C@@](O)(c2ccccc2)c2cc3c(c(-c4cc(Cl)c(F)cc4F)n2)OC[C@]3(C)C(N)=O)cc2cc(Cl)cnc12 [Example 187] | < 200 nM | < 200 nM | < 500 nM |
| CCc1cc(-c2nc([C@@](O)(CNC(=O)c3cc(OC)c4nn(C5CC5)cc4c3)C3CC3)cc3c2OC[C@]3(C)C(N)=O)ccc1F [Example 71] | < 200 nM | > 200 nM | > 500 nM |
| C[C@]1(C(N)=O)COc2c1cc([C@@](O)(CNC(=O)c1cc(OC3CC3)c3nn(C4(F)CC4)cc3c1)c1ccccc1)nc2-c1cccc(Cl)c1Cl [Example 266] | < 200 nM | < 200 nM | < 500 nM |
| COc1cc(C(=O)NC[C@@](O)(c2ccccc2)c2cc3c(c(-c4cc(C(F)F)c(F)cc4F)n2)OC[C@]3(C)C(N)=O)cc2cn(C3(F)CC3)nc12 [Example 298] | < 200 nM | < 200 nM | < 500 nM |
| COc1cc(C(=O)NC[C@@](O)(c2ccc(F)cc2)c2cc3c(c(-c4ccc5c(c4Cl)OC(F)(F)O5)n2)OC[C@]3(C)C(N)=O)cc2cn(C(F)F)nc12 [Example 264] | < 200 nM | < 200 nM | < 500 nM |
| COc1cc(C(=O)NC[C@@](O)(c2ccsc2)c2cc3c(c(-c4cc(F)c(F)cc4F)n2)OC[C@]3(C)C(N)=O)cc2cn(C3(F)CC3)nc12 [Example 179] | < 200 nM | < 200 nM | < 500 nM |
| Cc1cnc2c(OC(F)F)cc(C(=O)NC[C@@](O)(c3ccccc3)c3cc4c(c(-c5cc(Cl)c(F)cc5F)n3)OC[C@]4(C)C(N)=O)cc2c1 [Example 183] | < 200 nM | < 200 nM | < 500 nM |

— patent US12358921B2, “Antiviral heterocyclic compounds” (priority 2022, dated 2025)
